From BindingDB's records for doi:10.1021/jm00101a008 (Centre De Recherche De Vitry-Alfortville, 1992)

Target: Leukotriene B4 receptor (Cavia porcellus)
Assay: Inhibition of [3H]LTB4 binding to Leukotriene B4 receptor in the guinea pig spleen membranes.

Row | SMILES | IC50 [nM]
1 | CC(C)(CCCCCCOc1cc(-c2ccccc2)cc(-c2ccccc2)n1)C(=O)O | 22
2 | O=C(O)CCCCCOc1cc(-c2ccc(NC(=O)C(F)(F)F)cc2)cc(-c2ccccc2)n1 | 150
3 | O=C(O)CCCCCOc1cc(-c2ccccc2Cl)cc(-c2ccccc2)n1 | 200
4 | CC(C)(CCCCOc1cc(-c2ccc(N)cc2)cc(-c2ccccc2)n1)C(=O)O | 6.6
5 | COC(=O)CCCCCOc1cc(-c2ccccc2)cc(-c2ccccc2)n1 | 40
6 | O=C(O)CCCCCOc1cc(-c2ccc([N+](=O)[O-])cc2)cc(-c2ccccc2)n1 | 50
7 | O=C(O)CCCCOc1cc(-c2ccccc2)cc(-c2ccccc2)n1 | 50
8 | O=C(O)CCCCCCOc1cc(-c2ccccc2)cc(-c2ccccc2)n1 | 25

Next, values leading:

Row | IC50 [nM] | SMILES
9 | 4.2 | CC(CCCCOc1cc(-c2ccc3c(c2)OCO3)cc(-c2ccccc2)n1)C(=O)O (centres undefined)
10 | 4 | CC(CCCCOc1cc(-c2ccccc2)cc(-c2ccccc2)n1)C(=O)O (centres undefined)
11 | 4 | CC(CCCCOc1cc(-c2ccccc2)cc(-c2ccccc2F)n1)C(=O)O (centres undefined)
12 | 3 | O=C(O)CCCCCOc1cc(-c2ccccc2)cc(-c2ccccc2)n1
13 | 2 | CC(CCCCOc1cc(-c2ccc3c(c2)OCO3)cc(-c2ccccc2Cl)n1)C(=O)O (centres undefined)
14 | 1 | O=C(O)CCCCCOc1cc(-c2ccc3c(c2)OCO3)cc(-c2ccccc2)n1

Target: Leukotriene B4 receptor (Cavia porcellus)
Assay: as above
Remark: another data set of the same source

Row | IC50 [nM] | SMILES
15 | 300 | Cc1ccc(-c2cc(-c3ccccc3)cc(OCCCCCC(=O)O)n2)cc1
16 | 160 | NC(=O)CCCCCOc1cc(-c2ccccc2)cc(-c2ccccc2)n1
17 | 700 | N#CCCCCCOc1cc(-c2ccccc2)cc(-c2ccccc2)n1
18 | 300 | O=C(O)CCCOc1cc(-c2ccccc2)cc(-c2ccccc2)n1
19 | 1000 | COc1ccc(-c2cc(-c3ccccc3)cc(OCCCCCC(=O)O)n2)cc1
